{"source": "paper PMC2359919", "about": "“Molecular targeting of retinoic acid metabolism in neuroblastoma: the role of the CYP26 inhibitor R116010 in vitro and in vivo” (British Journal of Cancer, 2007)", "key": {"RA metabolism": {"system": "RA metabolism", "assay": "Effect of R116010 on retinoid concentrations (plasma, liver, tumour) in an SH-SY5Y xenograft model, LC/MS", "type": "in vivo, CD-1 nude mice", "procedure": "All in vivo experiments were approved by the relevant institutional animal welfare committees, and performed according to national law. Female athymic nude mice (CD-1 nu/nu, Charles River) used for antitumour studies were maintained and handled in isolators, under specific pathogen-free conditions, at 24°C with a 12 h light, 12 h dark cycle. Tumours were generated by implantation of SH-SY5Y cells subcutaneously (s.c.) into one flank of CD-1 nude mice (1 × 10^7 cells per animal).\nTreatments began when the tumours were between 7 and 10 mm in length and breadth. Retinoids and R116010 were initially dissolved in DMSO before 10- or 20-fold dilutions in PBS, respectively. For pharmacokinetic studies, the animals were dosed with ATRA or 13cisRA (each 100 mg kg^−1) orally for 0.5, 2 and 6 h. For metabolism studies, animals were treated with R116010 orally at doses of 1.25 or 2.5 mg kg^−1 either immediately before the retinoid being studied, or up to three times (over 1–2 days) before dosing with the retinoid. At termination of experiments, animals were bled under terminal anaesthesia then killed by cervical dislocation. Plasma was immediately removed from the blood by centrifugation at 1000 g for 5 min and snap-frozen in liquid nitrogen in amber Eppendorfs. Tumour and liver samples were removed and snap-frozen, wrapped in foil, in liquid nitrogen.\nCell pellets obtained from retinoid incubations were re-suspended in 2 ml cell culture medium and disrupted by passing the samples several times through a syringe and hypodermic needle (25G × 1 inches, 0.5 mm × 25 mm; Terumo, Somerset, NJ, USA). Tumour and liver tissues were re-suspended in PBS and homogenised (T25 homogeniser, IKA Laboratories, Staufen, Germany). Retinoids were extracted as described previously ([Veal et al, 2002]; [Armstrong et al, 2005b]). Samples were reconstituted in 200 μl mobile phase A (n-hexane:dichloromethane:propan-2-ol, 400 : 1 : 0.27) and analysed by normal-phase HPLC as described previously ([Veal et al, 2002]). For LC/MS analysis, samples were reconstituted in 200 μl mobile phase A (50% acetonitrile, 50% (0.2%) acetic acid, v v^−1).\nResolution of retinoids was performed with a Luna C18(2) column (3 μm, 50 mm × 2 mm) using a Perkin Elmer LC (Beaconsfield, UK) system, consisting of a vacuum degasser, two series 200 pumps, a thermostatically controlled series 200 autosampler and a Waters 2487 UV absorbance detector. Retinoic isomers and metabolites were separated by gradient reversed-phase chromatography. An injection volume of 20 μl with a flow rate of 0.2 ml min^−1 was used with mobile phase A (50% acetonitrile, 50% (0.2%) acetic acid, v v^−1) and mobile phase B (acetonitrile, 0.1% acetic acid, v v^−1). Linear gradients were employed between the specified times as follows: 0, 100% A; 5 min, 100% A; 15 min, 100% B; 20 min, 100% B; 23 min, 100% A; 35 min, 100% A. An Applied Biosystems (Warrington, UK) API-2000 LC/MS/MS triple Q (quadrupole) mass spectrometer with electrospray ionisation source, controlled by Analyst software, was operated in single quadrupole negative mode for the detection of compounds."}, "[1]": {"system": "SH-SY5Y, NGP, SH-EP and GIMEN cells", "set-up": "method as in Armstrong et al, 2005b", "conditions": "SH-SY5Y neuroblastoma cells; ref Armstrong et al, 2005b; cited from earlier work"}, "[2]": {"conditions": "13cisRA 100 mg kg^−1 with increasing doses of R116010, 6 h"}, "[3]": {"conditions": "ATRA-treated mice (100 mg kg^−1) with R116010, 6 h"}}, "data": [{"smiles": "C[C@@H]([C@H](c1ccc(Nc2nc3ccccc3s2)cc1)n1ccnc1)N(C)C", "note": "[R116010]", "values": [{"measurement": "Increase in 13cisRA plasma concentration", "setting": "RA metabolism; 13cisRA 100 mg kg^−1 after four doses of R116010 at 2.5 mg kg^−1 vs 13cisRA alone, 6 h", "result": "≤ 4.6", "unit": "fold"}, {"measurement": "Effect on 13cisRA plasma concentrations", "setting": "RA metabolism; 13cisRA 100 mg kg^−1 with increasing doses of R116010 (1.25; 2.5 mg kg^−1 x1, x2, x4) vs retinoid alone, 6 h", "result": "significant increases"}, {"measurement": "Effect on plasma 13cis-4-oxo-RA concentrations", "setting": "RA metabolism; [2]", "result": "no significant dose-dependent effect"}, {"measurement": "Effect on plasma AT-4-oxo-RA concentrations", "setting": "RA metabolism; [2]", "result": "apparent linear increase"}, {"measurement": "Effect on ATRA plasma concentrations", "setting": "RA metabolism; 13cisRA 100 mg kg^−1 with increasing doses of R116010 vs retinoid alone, 6 h", "result": "significant increases"}, {"measurement": "Effect on liver ATRA levels", "setting": "RA metabolism; 13cisRA 100 mg kg^−1 with one and two doses of 2.5 mg kg^−1 R116010, 6 h", "result": "increased slightly"}, {"measurement": "Tumour 13cisRA levels with R116010", "setting": "RA metabolism; 13cisRA 100 mg kg^−1 with single dose R116010 at 2.5 mg kg^−1, SH-SY5Y tumour, 6 h", "result": "0.59 ± 0.07", "unit": "µg/g"}, {"measurement": "Effect on levels of the 4-oxo-RA metabolites in tumour", "setting": "RA metabolism; 13cisRA or ATRA in combination with R116010 vs retinoid alone", "result": "no significant differences"}, {"measurement": "Effect on levels of ATRA in tumour samples", "setting": "RA metabolism; 13cisRA-treated mice with R116010", "result": "not significantly affected"}, {"measurement": "Increase in plasma ATRA concentrations", "setting": "RA metabolism; ATRA 100 mg kg^−1 after four doses of R116010 at 2.5 mg kg^−1 vs ATRA alone, 6 h", "result": "≤ 2.3", "unit": "fold"}, {"measurement": "Effect on liver 13cisRA or ATRA levels", "setting": "RA metabolism; ATRA 100 mg kg^−1 in combination with R116010, 6 h", "result": "No significant increases"}, {"measurement": "Effect on liver 13cis-4-oxo-RA and AT-4-oxo-RA levels", "setting": "RA metabolism; ATRA 100 mg kg^−1 in combination with R116010 or after R116010 pretreatment, 6 h", "result": "significant decreases"}, {"measurement": "Effect on plasma 13cisRA concentrations", "setting": "RA metabolism; [3]", "result": "marginal"}, {"measurement": "Effect on plasma AT-4-oxo-RA levels", "setting": "RA metabolism; [3]", "result": "no effect"}, {"measurement": "Effect on liver 13cisRA levels", "setting": "RA metabolism; R116010 before 13cisRA 100 mg kg^−1, 6 h", "result": "not associated with 13cisRA levels being different from control"}, {"measurement": "Effect on liver 13cis-4-oxo-RA and AT-4-oxo-RA concentrations", "setting": "RA metabolism; R116010 before 13cisRA 100 mg kg^−1, all conditions, 6 h", "result": "significantly lower levels"}, {"measurement": "Effect on levels of retinoids in tumour tissue", "setting": "RA metabolism; R116010 before ATRA", "result": "no significant differences"}, {"measurement": "Inhibition of ATRA metabolism", "setting": "[1]", "result": "inhibits ATRA metabolism"}]}]}
